Columns and labels:
229E Mpro = 229E Mpro (Human coronavirus 229E (HCoV-229E), UniProt P0C6X1); assay: 229E Mpro activity; type: biochemical; details: read-out: 229E Mpro EC50
Procedure: Compounds are assayed using standard methods to assess compound activity and IC50. […] The assay buffer contains 20 mM of Tris-HCl (pH 7.3), 100 mM of NaCl, 1 mM of EDTA, 5mM of TCEP and 0.1% BSA.

[1] = test system: Human Coronavirus (HCov) 229E; assay: HCoV 229E cytopathic effect (CPE) assay; type: cell-based; details: protection from virus-induced CPE, CellTiter Glo
Procedure: The antiviral activity of compounds is calculated based on the protection of the virus-induced CPE at each concentration normalized by the virus control.
Reagents and instruments used in this assay include luminescent cell viability assay kit CellTiter Glo (Promega) and Microplate Reader Synergy2 (BioTek).
Cytopathic effect (CPE) is measured by CellTiter Glo following the manufacturer's manual. The antiviral activity of compounds is calculated based on the protection of the virus-induced CPE at each concentration normalized by the virus control.

SARS-CoV2 Mpro = SARS-CoV2 Mpro (Severe acute respiratory syndrome coronavirus 2 (2019-nCoV) (SARS-CoV-2), UniProt P0DTD1); assay: COVID-19 (SARS-CoV2) Mpro enzymatic assay; type: biochemical; details: 25 nM Mpro, 25 μM substrate

229E Mpro, sequence (P0C6X1 2966-3267 limits assumed): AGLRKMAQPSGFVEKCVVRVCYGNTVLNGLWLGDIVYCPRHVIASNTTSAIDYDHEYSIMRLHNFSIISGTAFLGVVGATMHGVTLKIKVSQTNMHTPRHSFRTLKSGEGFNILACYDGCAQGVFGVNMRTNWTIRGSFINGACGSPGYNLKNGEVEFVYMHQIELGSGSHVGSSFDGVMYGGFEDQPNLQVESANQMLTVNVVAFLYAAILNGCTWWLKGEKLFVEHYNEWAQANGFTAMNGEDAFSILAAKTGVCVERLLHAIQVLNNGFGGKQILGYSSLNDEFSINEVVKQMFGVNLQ

| Compound | EC50 (229E Mpro) | EC50 ([1]; human coronavirus 229E) | EC50 [1] | IC50 (SARS-CoV2 Mpro) |
| --- | --- | --- | --- | --- |
| COc1cccc2[nH]c(C(=O)N[C@@H](CC(C)(C)C)C(=O)N[C@H](C#N)C[C@@H]3CCCNC3=O)cc12 [Compound 643, N-[(1S)-1-[[(1S)-1-cyano-2-[(3S)-2-oxo-3-piperidyl]ethyl]carbamoyl]-3,3-dimethyl-butyl]-4-methoxy-1H-indole-2-carboxamide] | < 2000 nM | < 2000 nM |  |  |
| COc1cccc2[nH]c(C(=O)N[C@@H](CC(C)C)C(=O)NC(C#N)c3cccnc3)cc12 (mixture of isomers) [Compound 433, N-[(1S)-1-[[cyano(3-pyridyl)methyl]carbamoyl]-3-methyl-butyl]-4-methoxy-1H-indole-2-carboxamide] | < 2000 nM | 2000 to 10000 nM |  |  |
| COc1cccc2[nH]c(C(=O)N[C@@H](CC(C)C)C(=O)N[C@@H](CC3CCNC3=O)C(C#N)NCc3ccccc3)cc12 (single isomer, unassigned) [507 (Isomer 1.2)] | < 2000 nM |  | < 2000 nM |  |
| COc1cccc2[nH]c(C(=O)N3C[C@H]4C([C@H]3C(=O)N[C@H](C#N)C[C@@H]3CCNC3=O)C4(C)C)cc12 (stereo partly drawn) [Compound 197, (2S,5S)-N-[(1S)-1-cyano-2-[(3S)-2-oxopyrrolidin-3-yl]ethyl]-3-(4-methoxy-1H-indole-2-carbonyl)-6,6-dimethyl-3-azabicyclo[3.1.0]hexane-2-carboxamide] | < 2000 nM | < 2000 nM |  |  |
| N#C[C@H](C[C@@H]1CCNC1=O)NC(=O)[C@H](CC1CC1)NC(=O)c1cc2cccc(Cl)c2[nH]1 [Compound 531, 7-chloro-N-[(1S)-2-[[(1S)-1-cyano-2-[(3S)-2-oxopyrrolidin-3-yl]ethyl]amino]-1-(cyclopropylmethyl)-2-oxo-ethyl]-1H-indole-2-carboxamide] | < 2000 nM | < 2000 nM |  |  |
| CCCOc1cccc2[nH]c(C(=O)N[C@@H](CC3CC3)C(=O)N[C@H](C#N)C[C@@H]3CCNC3=O)cc12 [Compound 379, N-[(1S)-2-[[(1S)-1-cyano-2-[(3S)-2-oxopyrrolidin-3-yl]ethyl]amino]-1-(cyclopropylmethyl)-2-oxo-ethyl]-4-propoxy-1H-indole-2-carboxamide] | < 2000 nM | < 2000 nM |  |  |
| N#C[C@H](C[C@@H]1CCNC1=O)NC(=O)[C@H](CC1CC1)NC(=O)c1cc2cc(Cl)ccc2[nH]1 [Compound 519, 5-chloro-N-[(1S)-2-[[(1S)-1-cyano-2-[(3S)-2-oxopyrrolidin-3-yl]ethyl]amino]-1-(cyclopropylmethyl)-2-oxo-ethyl]-1H-indole-2-carboxamide] | < 2000 nM | < 2000 nM |  |  |
| COc1cccc2[nH]c(C(=O)N[C@@H](CC(C)C)C(=O)N[C@@H](CC3CCNC3=O)C(C#N)NCc3ccccc3)cc12 (single isomer, unassigned) [507 (Isomer 2.2)] | < 2000 nM |  | < 2000 nM |  |
| N#C[C@H](C[C@@H]1CCNC1=O)NC(=O)C1CC2(CCC2)CN1C(=O)c1cc2ccc(Cl)c(Cl)c2[nH]1 (single isomer, unassigned) [814 (Isomer 2)] | < 2000 nM |  |  | < 2000 nM |
| COc1cccc2[nH]c(C(=O)N3CC4(CCCCC4)CC3C(=O)N[C@H](C#N)CC3CCC(C)(C)NC3=O)cc12 (single isomer, unassigned) [1111 (Isomer 3)] | 2000 to 10000 nM |  |  | < 2000 nM |
| COc1cc(Cl)c2[nH]c(C(=O)N3CC4(CCCCC4)CC3C(=O)N[C@H](C#N)C[C@@H]3CCCNC3=O)cc2c1 (single isomer, unassigned) [1147A (Isomer 2)] | 10000 to 30000 nM |  |  | 2000 to 10000 nM |
| CC1(C)CC(C[C@@H](C#N)NC(=O)C2CC3(CCCCC3)CN2C(=O)c2cc3cccc(Cl)c3[nH]2)C(=O)N1 (single isomer, unassigned) [930 (Isomer 4)] | 10000 to 30000 nM |  |  | 2000 to 10000 nM |
| COc1cc(Cl)cc2[nH]c(C(=O)N3CC4(CCCCC4)CC3C(=O)N[C@H](C#N)C[C@@H]3CCCNC3=O)cc12 (single isomer, unassigned) [908 (Isomer 1)] | < 2000 nM |  |  | < 2000 nM |
| N#C[C@H](C[C@@H]1CCNC1=O)NC(=O)C1CC2(CCC2)CN1C(=O)c1cc2ccc(Cl)cc2[nH]1 (single isomer, unassigned) [990 (Isomer 2)] | < 2000 nM |  |  | < 2000 nM |
| COc1ccc(Cl)c2[nH]c(C(=O)N3CC4(CCCCC4)CC3C(=O)NC(C#N)C[C@@H]3CCCNC3=O)cc12 (single isomer, unassigned) [902 (Isomer 3)] | < 2000 nM |  |  | < 2000 nM |
| N#C[C@H](C[C@@H]1CCCNC1=O)NC(=O)C1CC2(CCC(F)(F)CC2)CN1C(=O)c1cc2cccc(Cl)c2[nH]1 (single isomer, unassigned) [805 (Isomer 2)] | < 2000 nM |  |  | < 2000 nM |
| CC1(C)CC(C[C@@H](C#N)NC(=O)C2CC3(CCCCC3)CN2C(=O)c2cc3cccc(Cl)c3[nH]2)C(=O)N1 (single isomer, unassigned) [930 (Isomer 3.1)] | < 2000 nM |  |  | < 2000 nM |
| COc1cccc2[nH]c(C(=O)N[C@@H](CC3CC3(F)F)C(=O)N[C@H](C#N)C[C@@H]3CCCNC3=O)cc12 (single isomer, unassigned) [1059 (Isomer 2)] | 10000 to 30000 nM |  |  | 10000 to 30000 nM |
| COc1ccc(Cl)c2[nH]c(C(=O)N3CC4(CCCCC4)CC3C(=O)NC(C#N)C[C@@H]3CCCNC3=O)cc12 (single isomer, unassigned) [902 (Isomer 4)] | > 30000 nM |  |  | > 30000 nM |

| Compound | EC50 (229E Mpro) | EC50 ([1]; human coronavirus 229E) | EC50 [1] | IC50 (SARS-CoV2 Mpro) |
| --- | --- | --- | --- | --- |
| COc1ccc(Cl)c2[nH]c(C(=O)N3CC4(CCC4)CC3C(=O)N[C@H](C#N)C[C@@H]3CCNC3=O)cc12 (single isomer, unassigned) [992 (Isomer 2)] | > 30000 nM |  |  | > 30000 nM |
| N#C[C@H](C[C@@H]1CCNC1=O)NC(=O)C1CC2(CCC2)CN1C(=O)c1cc2cccc(Cl)c2[nH]1 (single isomer, unassigned) [988 (Isomer 1)] | > 30000 nM |  |  | > 30000 nM |
| CC1(C)CC(C[C@@H](C#N)NC(=O)C2CC3(CCCCC3)CN2C(=O)c2cc3cccc(Cl)c3[nH]2)C(=O)N1 (single isomer, unassigned) [930 (Isomer 3)] | < 2000 nM |  |  | < 2000 nM |
| N#C[C@H](C[C@@H]1CCNC1=O)NC(=O)C1CC2(CCC2)CN1C(=O)c1cc2ccc(Cl)cc2[nH]1 (single isomer, unassigned) [990 (Isomer 1)] | > 30000 nM |  |  | > 30000 nM |
| COc1ccc(Cl)c2[nH]c(C(=O)N3CC4(CCCCC4)CC3C(=O)NC(C#N)C[C@@H]3CCCNC3=O)cc12 (single isomer, unassigned) [902 (Isomer 1)] | < 2000 nM |  |  | < 2000 nM |
| COc1cccc2[nH]c(C(=O)N[C@@H](CC(C)C)C(=O)N[C@@H](C[C@@H]3CCNC3=O)C(N)C#N)cc12 (stereo partly drawn) [Compound 344C, N-[(1S)-1-[[(1S)-2-amino-2-cyano-1-[[(3S)-2-oxopyrrolidin-3-yl]methyl]ethyl]carbamoyl]-3-methyl-butyl]-4-methoxy-1H-indole-2-carboxamide] | < 2000 nM | < 2000 nM |  |  |
| CC1(C)CC(C[C@@H](C#N)NC(=O)C2CC3(CCCCC3)CN2C(=O)c2cc3cccc(Cl)c3[nH]2)C(=O)N1 (single isomer, unassigned) [930 (Isomer 1)] | > 30000 nM |  |  | 10000 to 30000 nM |
| COc1cccc2[nH]c(C(=O)N3Cc4ccccc4C3C(=O)N[C@H](C#N)C[C@@H]3CCNC3=O)cc12 (single isomer, unassigned) [429A (Isomer 1)] | > 30000 nM |  |  | 10000 to 30000 nM |
| COc1ccc(Cl)c2[nH]c(C(=O)N3CC4(CCC4)CC3C(=O)N[C@H](C#N)C[C@@H]3CCNC3=O)cc12 (single isomer, unassigned) [992 (Isomer 1)] | < 2000 nM |  |  | < 2000 nM |
| CC1(C)CC(C[C@@H](C#N)NC(=O)C2CC3(CCCCC3)CN2C(=O)c2cc3cccc(Cl)c3[nH]2)C(=O)N1 (single isomer, unassigned) [930 (Isomer 2)] | > 30000 nM |  |  | 10000 to 30000 nM |
| N#C[C@H](C[C@@H]1CCCNC1=O)NC(=O)[C@H](CC1CC1)NC(=O)c1ccn[nH]1 [Compound 872, N-((S)-1-(((S)-1-cyano-2-((S)-2-oxopiperidin-3-yl)ethyl)amino)-3-cyclopropyl-1-oxopropan-2-yl)-1H-pyrazole-5-carboxamide] | 2000 to 10000 nM |  |  | 2000 to 10000 nM |
| COc1cccc2[nH]c(C(=O)N[C@@H](CC3CC3)C(=O)N[C@](C)(C#N)CC3CCNC3=O)cc12 (single isomer, unassigned) [1055 (Isomer 2)] | > 30000 nM |  |  | > 30000 nM |
| COc1cccc2[nH]c(C(=O)N[C@@H](CC3CC3)C(=O)N[C@@]3(C#N)C[C@@H]4CC[C@H]3[C@@H]3C(=O)NC(=O)[C@H]43)cc12 (single isomer, unassigned) [489 (Isomer 2)] | > 30000 nM |  |  | > 30000 nM |
| N#C[C@H](C[C@@H]1CCCNC1=O)NC(=O)C1CC2(CCCCC2)CN1C(=O)c1cc2ccc(Cl)cc2[nH]1 (single isomer, unassigned) [733 (Isomer 2)] | 2000 to 10000 nM |  |  | 2000 to 10000 nM |
| N#C[C@H](C[C@@H]1CCCNC1=O)NC(=O)C1CC2(CCC2)CN1C(=O)c1cc2ccc(Cl)cc2[nH]1 (single isomer, unassigned) [791 (Isomer 1)] | > 30000 nM |  |  | > 30000 nM |
| CC1(C)CC(C[C@@H](C#N)NC(=O)C2CC3(CCCCC3)CN2C(=O)c2cc3cccc(Cl)c3[nH]2)C(=O)N1 (single isomer, unassigned) [930 (Isomer 3.2)] | 10000 to 30000 nM |  |  | 2000 to 10000 nM |
| N#C[C@H](C[C@@H]1CCCNC1=O)NC(=O)C1CC2(CCC2)CN1C(=O)c1cc2c(Cl)cccc2[nH]1 (single isomer, unassigned) [803 (Isomer 4)] | < 2000 nM |  |  | 2000 to 10000 nM |
| COc1cccc2[nH]c(C(=O)N3CC[C@H](c4ccccc4)[C@H]3C(=O)N[C@H](C#N)C[C@@H]3CCNC3=O)cc12 [Compound 163, (2S,3R)-N-((S)-1-cyano-2-((S)-2-oxopyrrolidin-3-yl)ethyl)-1-(4-methoxy-1H-indole-2-carbonyl)-3-phenylpyrrolidine-2-carboxamide] | 10000 to 30000 nM |  |  | 2000 to 10000 nM |

Reference: patent US11524940B1, “Inhibitors of cysteine proteases and methods of use thereof” (priority 2020, dated 2022)
